Results from publication PMC8232551 (RSC Chemical Biology, 2020).
Peptide text beside a SMILES is read from it. * marks the point of attachment. Cbz = O=C(OCc1ccccc1)*

Assays:
[1] = tested on: HeLa cells; assay: Live-cell confocal imaging of uptake of fluorescein-labelled peptides; type: cell-based; details: 1000 nM
[2] = tested on: HEK-293 cells; assay: Apoptosis assay in HEK-293 cells; type: cell-based; details: HEK-293 non-cancer derived cells, 10 μM

Row | SMILES | uptake into live HeLa cells [1] | induction of apoptosis [2]
1 | O=C1OC2(c3ccc(O)cc3Oc3cc(O)ccc32)c2ccccc21 [fluorescein] | negligible uptake | –
2 | CC(C)C[C@@H](C=O)NC(=O)[C@H](CC(C)C)NC(=O)[C@H](CC(C)C)NC(=O)OCc1ccccc1 [MG132] (Cbz-Leu-Leu-Leu-aldehyde) | – | did induce apoptosis
